Molecules are shown by their SMILES. “And” between values parts separate entries of the source, which are not always exact repeats. Identical values can stand only once.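 Each compound was tested at five concentrations against cells in 96-well plates for 48 hours. Here, GI50 denotes the concentration required for 50% inhibition of growth. TGI: concentration producing complete growth inhibition.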 Some results are limits rather than exact numbers.

The subject of the first test is RXF 393 renal. Put plainly: NCI-60 cell line screen, 48 h.
For `CC(=O)N(CCN)CCN`, the TGI was > 10 µM.
`Cc1cc(O)c2c(c1)C(O)(c1ccc3c(c1O)C(=O)c1c(O)cc(C)cc1C3(O)C1OC(CO)C(O)C(O)C1O)c1cccc(O)c1C2=O` (configuration not stated) gave a TGI of 24.7 µM.
Take `COC(=O)c1nc(NN)[nH]c(=O)c1CCCCCc1c(C(=O)OC)[nH]c(NN)cc1=O`: the TGI is > 100 µM.
The same measure, in the same setting: the figure for `CC1(C)C(=O)C(O)=CC2C1=CCC1C2(C)C(=O)CC2(C)C(C(C)(O)C(=O)CC(O)C(C)(C)O)C(O)CC12C` (configuration not stated) is 5.54 µM.
The same measure, in the same setting: the figure for `C/C(=N/N(C=O)C[n+]1ccccc1)C(CN(CC(C)C)CC(C)C)C(=O)Nc1ccc(C)cc1C` (configuration not stated) is > 100 µM; for `C=C(C)C1CC2C(C)=C(OC(C)=O)C1n1c(=O)c3cc4ccccc4cc3c(=O)n12` (configuration not stated) it is > 90.9 µM.
For `Clc1ccc(COC(Cn2ccnc2)c2ccc(Cl)cc2Cl)cc1` (configuration not stated), the GI50 was 2.01 µM; the TGI was 6.78 µM and 31.7 µM and 29.1 µM.
In the case of `COC(=O)C1=C(OC(=O)c2ccc(Cl)cc2)C(C(=O)OC)[C@@]2(O)[C@@H](C(=O)OC)C(c3ccccc3C(F)(F)F)C[C@@H]1[C@@H]2C(=O)OC` (some centres not stated), the GI50 is 2.14 µM and the TGI is 5.43 µM.
As to `Nc1c(C(=O)Nc2ccc([As](=O)(O)O)cc2)cnc2nnnn12`, the TGI is > 100 µM.
In the case of `CC(C)n1c(/C=C/[C@@H](O)C[C@@H](O)CC(=O)O)c(-c2ccc(F)cc2)c2ccccc21`, the GI50 was 3.54 µM and 2.12 µM; the TGI is > 100 µM and 18.9 µM.
In turn, `N#CC(C#N)SCc1ccccc1` returned a TGI of 79 µM.
Turning to `CCOc1ccc(NCC2CC/C(=C\C=C\c3ccccc3)C2=O)cc1` (configuration not stated), the TGI came to 29.6 µM.
As to `Cc1cc(N(CCNc2ccnc3cc(Cl)ccc23)Cc2ccc3c(c2)OCO3)nc(N2CCN(C)CC2)n1`, the GI50 was 1.43 µM and the TGI stood at 3.17 µM.

Another test has as its system SK-MEL-2 melanoma. The experiment in a line: NCI-60 cell line screen, 48 h.
As for `COc1ccc(C2C(Cl)C(=O)N2n2cnc3ccccc3c2=O)cc1OC` (configuration not stated), the TGI is > 100 µM.
Same read-out and setting: the result for `Nc1nc2c(ncn2Cc2ccccc2CCO)c(=O)[nH]1` reads > 100 µM; that for `CCC1(Br)C(=O)NC(=O)N(C2CC(O)C(CO)O2)C1N=[N+]=[N-]` (configuration not stated), > 100 µM; that for `O=[N+]([O-])c1ccc(N=Nc2c(O)[nH]c3ccc([N+](=O)[O-])cc23)cc1`, > 100 µM.
As for `CC12CC3(C)CC(C)(C1)CC(N=[N+]=[N-])(C2)C3`, the TGI was > 100 µM.
For `N=C(N)SCc1cn2ccccc2n1`, the TGI is > 100 µM.
Turning to `Clc1ccc([O][In]([O]c2ccc(Cl)cn2)[O]c2ccc(Cl)cn2)nc1`, the GI50 was > 100 µM and the TGI was > 100 µM.
In turn, `Fc1cccc(Cl)c1C1SCc2nc3ccccc3n21` (configuration not stated) yielded a TGI of 51 µM.
`COc1cc2nncc(Sc3cnnc4ccccc34)c2cc1OC` had a TGI of 36.2 µM.
As for `COC(=O)C1=CCON(c2ccccc2)C1c1ccccc1` (configuration not stated), the TGI was > 100 µM.
Same read-out and setting: the result for `CC(=O)N(CCN)CCN` reads > 100 µM; that for `COC(=O)c1nc(NN)[nH]c(=O)c1CCCCCc1c(C(=O)OC)[nH]c(NN)cc1=O`, > 100 µM.
The same measure, in the same setting: the figure for `CC1(C)C(=O)C(O)=CC2C1=CCC1C2(C)C(=O)CC2(C)C(C(C)(O)C(=O)CC(O)C(C)(C)O)C(O)CC12C` (configuration not stated) is 6.12 µM; for `CCc1ccccc1NC(=O)C(=O)C(C(=O)c1ccc(OC)cc1)c1ccc(OC)cc1` (configuration not stated) it is > 100 µM.
On the same count and under the same terms, the result for `C/C(=N/N(C=O)C[n+]1ccccc1)C(CN(CC(C)C)CC(C)C)C(=O)Nc1ccc(C)cc1C` (configuration not stated) reads > 100 µM.
In the case of `O=C(c1ccccc1)c1c(CC(O)c2cccnc2)n(C(=O)c2ccccc2)c2ccccc12` (configuration not stated), the TGI worked out at 35.8 µM.
The same measure, in the same setting: the result for `C=C(C)C1CC2C(C)=C(OC(C)=O)C1n1c(=O)c3cc4ccccc4cc3c(=O)n12` (configuration not stated) reads > 100 µM; that for `COc1ccc(C(C2=C(C)C(=O)c3ccccc3C2=O)c2ccc(C(C)C)cc(=O)c2O)cc1` (configuration not stated), 22.3 µM.
Turning to `Clc1ccc(COC(Cn2ccnc2)c2ccc(Cl)cc2Cl)cc1` (configuration not stated), the GI50 is 2.32 µM; the TGI is 5.08 µM and 28.9 µM and 28.8 µM.
Consider `COC(=O)C1=C(OC(=O)c2ccc(Cl)cc2)C(C(=O)OC)[C@@]2(O)[C@@H](C(=O)OC)C(c3ccccc3C(F)(F)F)C[C@@H]1[C@@H]2C(=O)OC` (some centres not stated), for which the GI50 is 15.5 µM and the TGI worked out at 33.9 µM.
Consider `Nc1c(C(=O)Nc2ccc([As](=O)(O)O)cc2)cnc2nnnn12`, for which the TGI was > 100 µM.
Turning to `CC(C)n1c(/C=C/[C@@H](O)C[C@@H](O)CC(=O)O)c(-c2ccc(F)cc2)c2ccccc21`, the GI50 was 1.51 µM and 0.983 µM; the TGI is 30.9 µM and 22.3 µM.
In turn, `N#CC(C#N)SCc1ccccc1` had a TGI of 93 µM.
Same read-out and setting: the result for `CCOc1ccc(NCC2CC/C(=C\C=C\c3ccccc3)C2=O)cc1` (configuration not stated) reads > 100 µM.
In the case of `Cc1cc(N(CCNc2ccnc3cc(Cl)ccc23)Cc2ccc3c(c2)OCO3)nc(N2CCN(C)CC2)n1`, the GI50 was 1.98 µM and the TGI was determined as 4.02 µM.

The test system of another test is HT29 colon. Put plainly: NCI-60 cell line screen, 48 h.
`O=C1c2ccccc2N2OC3(N4CCCC4)CCCC3C12c1ccccc1` (configuration not stated): the TGI is > 100 µM.
On the same count and under the same terms, the result for `COc1ccc(C2C(Cl)C(=O)N2n2cnc3ccccc3c2=O)cc1OC` (configuration not stated) reads > 100 µM; that for `Nc1nc2c(ncn2Cc2ccccc2CCO)c(=O)[nH]1`, > 100 µM.
Turning to `CCC1(Br)C(=O)NC(=O)N(C2CC(O)C(CO)O2)C1N=[N+]=[N-]` (configuration not stated), the TGI was > 100 µM.
In turn, `O=[N+]([O-])c1ccc(N=Nc2c(O)[nH]c3ccc([N+](=O)[O-])cc23)cc1` came in with a TGI of 51.8 µM.
On to `CC12CC3(C)CC(C)(C1)CC(N=[N+]=[N-])(C2)C3`, for which the TGI was > 100 µM.
For the compound `N=C(N)SCc1cn2ccccc2n1`, the TGI is > 100 µM.
On to `Clc1ccc([O][In]([O]c2ccc(Cl)cn2)[O]c2ccc(Cl)cn2)nc1`, for which the GI50 was > 100 µM and the TGI is > 100 µM.
As to `Fc1cccc(Cl)c1C1SCc2nc3ccccc3n21` (configuration not stated), the TGI is > 100 µM.
The same measure, in the same setting: the figure for `COc1cc2nncc(Sc3cnnc4ccccc34)c2cc1OC` is 59.1 µM; for `COC(=O)C1=CCON(c2ccccc2)C1c1ccccc1` (configuration not stated) it is > 100 µM.
The compound `Cc1cc(O)c2c(c1)C(O)(c1ccc3c(c1O)C(=O)c1c(O)cc(C)cc1C3(O)C1OC(CO)C(O)C(O)C1O)c1cccc(O)c1C2=O` (configuration not stated) gave a TGI of 38.4 µM.
With `COC(=O)c1nc(NN)[nH]c(=O)c1CCCCCc1c(C(=O)OC)[nH]c(NN)cc1=O`, the TGI was > 100 µM.
Still for that read-out and setting: the result for `CC1(C)C(=O)C(O)=CC2C1=CCC1C2(C)C(=O)CC2(C)C(C(C)(O)C(=O)CC(O)C(C)(C)O)C(O)CC12C` (configuration not stated) reads > 64.5 µM.
